From ChEMBL document CHEMBL3044809, “Design, synthesis, and fungicidal activities of new strobilurin derivatives” (2007) come the findings set out here.

In brackets after ≈: the same amount, converted by molar mass.

Assay type in all cases: functional
One test deals with Colletotrichum gossypii. Nature of the test: Antifungal activity against Colletotrichum gossypii assessed as inhibition rate at 50 ug/mL.
A further test concerns Dothiorella gregaria. The experiment in a line: Antifungal activity against Dothiorella gregaria assessed as inhibition rate at 50 ug/mL.
Another test relates to Fusarium graminearum. The experiment in a line: Antifungal activity against Fusarium graminearum assessed as inhibition rate at 50 ug/mL.
Another test has as its system Rhizoctonia solani. The experiment in a line: Antifungal activity against Rhizoctonia solani assessed as inhibition rate at 50 ug/mL.
The test system of the next test is Botrytis. The experiment in a line: Antifungal activity against Botrytis cinereapers assessed as inhibition rate at 50 ug/mL.
A further test deals with Fusarium oxysporum. The experiment in a line: Antifungal activity against Fusarium oxysporum assessed as inhibition rate at 50 ug/mL.
Test [1] deals with Pseudoperonospora cubensis. The experiment in a line: Antifungal activity against Pseudoperonospora cubensis inoculated in inoculated in cucumber plant assessed as preventive fungicidal activity at 100 ug/mL measured after 7 days.
The test system of test [2] is Podosphaera fuliginea. The experiment in a line: Antifungal activity against Podosphaera fuliginea inoculated in inoculated in cucumber plant assessed as preventive fungicidal activity at 50 ug/mL measured after 7 days.
For test [3], the system named is Podosphaera fuliginea. Nature of the test: Antifungal activity against Podosphaera fuliginea inoculated in inoculated in cucumber plant assessed as preventive fungicidal activity at 100 ug/mL measured after 7 days.
Test [4] has as its system Pseudoperonospora cubensis. Nature of the test: Antifungal activity against Pseudoperonospora cubensis inoculated in inoculated in cucumber plant assessed as preventive fungicidal activity measured after 7 days. The following applies: 168 h.
In test [5] the test system is Pseudoperonospora cubensis. The experiment in a line: Antifungal activity against Pseudoperonospora cubensis inoculated in inoculated in cucumber plant assessed as preventive fungicidal activity at 25 ug/mL measured after 7 days.
Test [6] has as its system Pseudoperonospora cubensis. Nature of the test: Antifungal activity against Pseudoperonospora cubensis inoculated in inoculated in cucumber plant assessed as preventive fungicidal activity at 50 ug/mL measured after 7 days.
Test [7] concerns Podosphaera fuliginea. Nature of the test: Antifungal activity against Podosphaera fuliginea inoculated in inoculated in cucumber plant assessed as preventive fungicidal activity measured after 7 days. The following applies: 168 h.
The test system of test [8] is Podosphaera fuliginea. The experiment in a line: Antifungal activity against Podosphaera fuliginea inoculated in inoculated in cucumber plant assessed as preventive fungicidal activity at 25 ug/mL measured after 7 days.

As for `CO/N=C(/C(=O)OC)c1ccccc1CSc1nnc(CSc2nc3nc(C)cc(C)n3n2)s1`, the inhibition at 50 µg/mL in the test on Colletotrichum gossypii worked out at 32%; in the test on Dothiorella gregaria, 58%; in the test on Fusarium graminearum, 45%; with Rhizoctonia solani, 78%; in the test on Botrytis, 64%; in the test with Fusarium oxysporum, 54%.

`CO/C=C(/C(=O)OC)c1ccccc1CSc1nc(C)cc(C)n1`: the Activity in test [1] worked out at 0%; with Podosphaera fuliginea [2], 40%; in the test with Podosphaera fuliginea [3], 70%. For the same compound, the inhibition at 50 µg/mL came out at 52% in the test with Colletotrichum gossypii; 91% in the test on Dothiorella gregaria; 74% in the test on Fusarium graminearum; 83% with Rhizoctonia solani; 52% in the test on Botrytis; 79% in the test with Fusarium oxysporum.

Regarding `CO/C=C(/C(=O)OC)c1ccccc1CSc1nnc(N)s1`, the inhibition at 50 µg/mL in the test on Colletotrichum gossypii was 39%; with Dothiorella gregaria, 55%; in the test on Fusarium graminearum, 40%; in the test with Rhizoctonia solani, 61%; in the test with Botrytis it was 11%; in the test with Fusarium oxysporum it was 65%.

Take `CO/C=C(/C(=O)OC)c1ccccc1CSc1nnc(-c2ccccc2)n1N`: the inhibition at 50 µg/mL in the test on Colletotrichum gossypii was determined as 64%; in the test on Dothiorella gregaria, 76%; in the test on Fusarium graminearum it was 69%; in the test with Rhizoctonia solani, 84%; in the test on Botrytis, 41%; with Fusarium oxysporum, 76%.

In the case of `CO/C=C(/C(=O)OC)c1ccccc1CSc1nc2ccccc2[nH]1`, the inhibition at 50 µg/mL with Colletotrichum gossypii was found to be 52%; with Dothiorella gregaria, 87%; in the test with Fusarium graminearum, 53%; with Rhizoctonia solani, 78%; with Botrytis, 47%; in the test on Fusarium oxysporum, 45%.

`CO/C=C(/C(=O)OC)c1ccccc1CSc1nc2ccccc2o1`: the inhibition at 50 µg/mL in the test with Colletotrichum gossypii amounted to 83%; with Dothiorella gregaria, 46%; in the test on Fusarium graminearum it was 81%; in the test on Rhizoctonia solani, 78%; with Botrytis, 47%; with Fusarium oxysporum, 69%.

Consider `CO/C=C(/C(=O)OC)c1ccccc1CSc1nc2ccccc2s1`, for which the EC90 was 46.3 µg/mL (≈ 125 µM) in [4] and 6.17 µg/mL (≈ 16.6 µM) with Podosphaera fuliginea [7]. Besides, the Activity in test [5] came out at 62%; in test [6], 94%; in [1], 100%; with Podosphaera fuliginea [8] it was 100%; in the test on Podosphaera fuliginea [2], 100%; with Podosphaera fuliginea [3], 100%. Also, the inhibition at 50 µg/mL with Colletotrichum gossypii is 86%; in the test on Dothiorella gregaria, 94%; in the test on Fusarium graminearum, 74%; with Rhizoctonia solani, 87%; in the test with Botrytis it was 47%; in the test with Fusarium oxysporum, 69%.

Turning to `CO/C=C(/C(=O)OC)c1ccccc1CSc1nn2c(C)nnc2s1`, the inhibition at 50 µg/mL stood at 50% in the test with Colletotrichum gossypii; 82% with Dothiorella gregaria; 53% with Fusarium graminearum; 83% in the test with Rhizoctonia solani; 41% in the test on Botrytis; 59% in the test on Fusarium oxysporum.

For `CO/C=C(/C(=O)OC)c1ccccc1CSc1nc2nc(C)cc(C)n2n1`, the inhibition at 50 µg/mL in the test with Colletotrichum gossypii stood at 39%; with Dothiorella gregaria, 78%; in the test on Fusarium graminearum, 47%; in the test with Rhizoctonia solani, 66%; in the test with Botrytis it was 7%; with Fusarium oxysporum, 61%.

Take `CO/C=C(/C(=O)OC)c1ccccc1CSc1nnc(CSc2nc3nc(C)cc(C)n3n2)o1`: the inhibition at 50 µg/mL in the test with Colletotrichum gossypii is 39%; in the test on Dothiorella gregaria it was 73%; in the test on Fusarium graminearum it was 36%; in the test with Rhizoctonia solani it was 73%; in the test with Botrytis, 36%; in the test on Fusarium oxysporum it was 36%.

As to `CO/C=C(/C(=O)OC)c1ccccc1CSc1nnc(CSc2nc3nc(C)cc(C)n3n2)s1`, the inhibition at 50 µg/mL with Colletotrichum gossypii amounted to 39%; in the test on Dothiorella gregaria, 69%; with Fusarium graminearum, 44%; in the test with Rhizoctonia solani, 58%; in the test on Botrytis, 14%; in the test on Fusarium oxysporum, 61%.

As to `CO/C=C(/C(=O)OC)c1ccccc1CSc1nnc(CSc2nc3nc(C)cc(C)n3n2)n1N`, the inhibition at 50 µg/mL in the test with Colletotrichum gossypii amounted to 35%; in the test with Dothiorella gregaria, 78%; in the test on Fusarium graminearum, 43%; with Rhizoctonia solani, 73%; in the test with Botrytis, 14%; in the test on Fusarium oxysporum, 44%.

`CO/C=C(/C(=O)OC)c1ccccc1CSc1nnc(CSc2nc3nc(C)cc(C)n3n2)n1-c1ccccc1`: the inhibition at 50 µg/mL stood at 17% with Colletotrichum gossypii; 11% in the test with Dothiorella gregaria; 36% with Fusarium graminearum; 37% in the test on Rhizoctonia solani; 7% with Botrytis; 40% with Fusarium oxysporum.

As for `CO/C=C(/C(=O)OC)c1ccccc1CSc1cc(=O)c2ccccc2s1`, the inhibition at 50 µg/mL in the test with Colletotrichum gossypii was 52%; with Dothiorella gregaria, 14%; in the test with Fusarium graminearum, 53%; in the test with Rhizoctonia solani, 64%; with Botrytis, 18%; with Fusarium oxysporum, 48%.

`CO/N=C(/C(=O)OC)c1ccccc1CSc1cc(=O)c2ccccc2s1`: the inhibition at 50 µg/mL came to 48% in the test on Colletotrichum gossypii; 19% with Dothiorella gregaria; 61% in the test on Fusarium graminearum; 73% with Rhizoctonia solani; 23% in the test with Botrytis; 44% in the test on Fusarium oxysporum.

Take `CO/N=C(/C(=O)OC)c1ccccc1CSc1nc(C)cc(C)n1`: the inhibition at 50 µg/mL turned out to be 59% in the test with Colletotrichum gossypii; 82% in the test with Dothiorella gregaria; 61% in the test with Fusarium graminearum; 73% in the test on Rhizoctonia solani; 27% in the test with Botrytis; 76% with Fusarium oxysporum.

For the compound `CO/N=C(/C(=O)OC)c1ccccc1CSc1nc2ccccc2[nH]1`, the Activity (in [1]; with Podosphaera fuliginea [3]) was 0% each time. The inhibition at 50 µg/mL with Colletotrichum gossypii is 82%; in the test with Dothiorella gregaria it was 87%; in the test on Fusarium graminearum, 69%; in the test on Rhizoctonia solani, 90%; in the test with Botrytis it was 77%; with Fusarium oxysporum it was 72%.

Consider `CO/N=C(/C(=O)OC)c1ccccc1CSc1nc2ccccc2s1`, for which the EC90 came to 150 µg/mL (≈ 404 µM) in [4] and 9.6 µg/mL (≈ 25.8 µM) in the test with Podosphaera fuliginea [7]. In addition, the Activity in test [5] is listed as 39%; in test [6] it was 66%; in test [1] it was 84%; in the test with Podosphaera fuliginea [8], 97%; with Podosphaera fuliginea [2], 100%; in the test with Podosphaera fuliginea [3] it was 100%. In addition, the inhibition at 50 µg/mL in the test with Colletotrichum gossypii came to 75%; in the test on Dothiorella gregaria it was 84%; in the test on Fusarium graminearum, 81%; with Rhizoctonia solani, 82%; in the test on Botrytis, 52%; in the test with Fusarium oxysporum it was 74%.

Consider `CO/N=C(/C(=O)OC)c1ccccc1CSc1nc2nc(C)cc(C)n2n1`, for which the inhibition at 50 µg/mL in the test on Colletotrichum gossypii is 35%; with Dothiorella gregaria it was 78%; in the test with Fusarium graminearum, 50%; in the test on Rhizoctonia solani it was 69%; in the test on Botrytis, 14%; in the test on Fusarium oxysporum, 50%.

For the compound `CO/N=C(/C(=O)OC)c1ccccc1CSc1nnc(CSc2nc3nc(C)cc(C)n3n2)o1`, the inhibition at 50 µg/mL with Colletotrichum gossypii stood at 36%; with Dothiorella gregaria, 70%; in the test on Fusarium graminearum it was 41%; in the test with Rhizoctonia solani it was 88%; in the test with Botrytis it was 77%; in the test on Fusarium oxysporum, 63%.

For the compound `CO/N=C(/C(=O)OC)c1ccccc1COc1ccccc1C` [KRESOXIM-METHYL], the EC90 came out at 155 µg/mL (≈ 494 µM) in [4] and 7.3 µg/mL (≈ 23.3 µM) in the test on Podosphaera fuliginea [7]. The Activity in test [5] came to 27%; in [6] it was 56%; in test [1], 80%; in the test with Podosphaera fuliginea [8] it was 98%; in the test with Podosphaera fuliginea [2], 100%; with Podosphaera fuliginea [3], 100%. For the same compound, the inhibition at 50 µg/mL in the test on Colletotrichum gossypii was found to be 50%; in the test with Dothiorella gregaria, 82%; with Fusarium graminearum, 53%; with Rhizoctonia solani it was 70%; in the test on Botrytis it was 50%; in the test with Fusarium oxysporum it was 61%.

Regarding `CC(C)(C)C(=O)C(Oc1ccc(Cl)cc1)n1cncn1` (stereo unspecified) [TRIADIMEFON], the inhibition at 50 µg/mL with Colletotrichum gossypii amounted to 95%; in the test with Dothiorella gregaria it was 61%; with Fusarium graminearum, 72%; with Rhizoctonia solani it was 90%; with Botrytis, 84%; in the test on Fusarium oxysporum, 86%.

One may read the inhibition as the percentage by which the read-out fell short of the control. As a reminder, the EC90 is the concentration at which the effect reaches the 90% level.
